For 31 molecules, EC50 results are on record in patent publication US12612412B2, “Antiviral heterocyclic compounds” (Enanta Pharmaceuticals, Inc., priority 2021, dated 2026).

Broadly, the EC50 is the midpoint of the concentration-response curve.

For experiment [1], the system named is genotype A, "Long" strain RSV. Briefly: RSV-A assay (CPE protection in Hep-2 cells, ATPlite readout). The format is cell-based, Human respiratory syncytial virus (HRSV). As to conditions: human respiratory syncytial virus, RSV-A Long strain, MOI 0.1, CPE protection, read-out: Human RSV-A (“Long”) EC50. In outline: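 Hep-2 cells (8,000/well) infected with RSV Long strain at MOI 0.1 in the presence of 2-fold compound dilutions in duplicate. After 5 days, cell viability measured by ATPlite luminescence, normalized between virus-only and uninfected cell controls; EC50 reported.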

Experiment [2] has as its system HMPV clinical isolate TN/1501/A1. The experiment in a line: HMPV antiviral assay Method-B (clinical isolate TN/1501/A1 in LLC-MK2 cells, ATP-Lite readout). The format is cell-based, Human metapneumovirus (HMPV). As to conditions: human metapneumovirus, LLC-MK2, 144 h, hMPV WT1501 (clinical isolate TN/1501/A1), 6 days. Put shortly: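 EC50 derived by four-parameter logistic fit of percent cell health, measured by ATP-Lite luminescence and normalised to virus-only and uninfected-cell controls. Compounds run in duplicate from 10 μM top, 3-fold, 10 points. Infection: LLC-MK2 cells, MOI 0.014, 2 μg/mL final TPCK-trypsin, serum-free, 6 days at 37° C.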

Regarding `COc1cc(C(=O)NC[C@](O)(c2cc3c(c(-c4ccc(F)c(Cl)c4)n2)OCC3(CF)C(N)=O)C(F)(F)F)cc2cn(C3CC3)nc12` (some centres unmarked) [Example 1050], the EC50 in experiment [1] was < 0.2 µM; in experiment [2], < 0.5 µM.
`COc1cc(C(=O)NC[C@](O)(c2cc3c(c(-c4ccc(F)c(Cl)c4)n2)OC[C@@]3(CF)C(N)=O)C(F)(F)F)cc2cn(C3CC3)nc12` [Example 1051]: the EC50 in experiment [1] is < 0.2 µM; in experiment [2], > 0.5 µM.
The corresponding values for `COc1cc(C(=O)NC[C@](O)(c2cc3c(c(-c4ccc(F)c(Cl)c4)n2)OC[C@]3(CF)C(N)=O)C(F)(F)F)cc2cn(C3CC3)nc12` [Example 1052] are < 0.2 µM and < 0.5 µM.
In the case of `NC(=O)[C@]1(CF)COc2c1cc([C@@](O)(CNC(=O)c1cc(OC3CC3)c3ncccc3c1)C1CC1)nc2-c1ccc(F)cc1` [Example 1053], the concentration giving a half-maximal response (EC50) in experiment [1] was > 0.2 µM; in experiment [2], > 0.5 µM.
On to `NC(=O)[C@@]1(CF)COc2c1cc([C@@](O)(CNC(=O)c1cc(OC3CC3)c3ncccc3c1)C1CC1)nc2-c1ccc(F)cc1` [Example 1054], for which the figures for the EC50 in experiment [1] and in experiment [2] were < 0.2 µM and > 0.5 µM, respectively.
The corresponding values for `COc1cc(C(=O)NC[C@](O)(c2cc3c(c(-c4ccc(F)cc4)n2)OC[C@@]3(CF)C(N)=O)C2CC2)cc2cc(Cl)c(C)nc12` [Example 1055] are > 0.2 µM and > 0.5 µM.
The corresponding values for `COc1cc(C(=O)NC[C@](O)(c2cc3c(c(-c4ccc(F)cc4)n2)OC[C@]3(CF)C(N)=O)C2CC2)cc2cc(Cl)c(C)nc12` [Example 1056] are < 0.2 µM and < 0.5 µM.
The corresponding values for `Cc1cnc2c(OC(F)F)cc(C(=O)NC[C@](O)(c3cc4c(c(-c5ccc(F)cc5)n3)OC[C@@]4(CF)C(N)=O)C3CC3)cc2c1` [Example 1057] are > 0.2 µM and > 0.5 µM.
As for `Cc1cnc2c(OC(F)F)cc(C(=O)NC[C@](O)(c3cc4c(c(-c5ccc(F)cc5)n3)OC[C@]4(CF)C(N)=O)C3CC3)cc2c1` [Example 1058], the figures for the concentration for a half-maximal effect (EC50) in experiment [1] and in experiment [2] were < 0.2 µM and < 0.5 µM, respectively.
Taken in the same sequence, the figures for `COc1cc(C(=O)NC[C@](O)(c2cc3c(c(-c4ccc(F)cc4)n2)OC[C@@]3(CF)C(N)=O)C2CC2)cc2cc(C3CC3)nn12` [Example 1059] were > 0.2 µM and > 0.5 µM.
The corresponding values for `COc1cc(C(=O)NC[C@](O)(c2cc3c(c(-c4ccc(F)cc4)n2)OC[C@]3(CF)C(N)=O)C2CC2)cc2cc(C3CC3)nn12` [Example 1060] are < 0.2 µM and < 0.5 µM.
Consider `COc1cc(C(=O)NC[C@](O)(c2cc3c(c(-c4ccc(F)cc4)n2)OC[C@@]3(CF)C(N)=O)C2CC2)cc2cn(C(F)F)nc12` [Example 1061], for which the results for the EC50 in experiment [1] and in experiment [2] were > 0.2 µM and > 0.5 µM, respectively.
Taken in the same sequence, the figures for `COc1cc(C(=O)NC[C@](O)(c2cc3c(c(-c4ccc(F)cc4)n2)OC[C@]3(CF)C(N)=O)C2CC2)cc2cn(C(F)F)nc12` [Example 1062] were < 0.2 µM and < 0.5 µM.
The corresponding values for `COc1cc(C(=O)NC[C@](O)(c2cc3c(c(-c4ccc(F)cc4)n2)OC[C@@]3(CF)C(N)=O)C2CC2)cc2cn(C3CC3)nc12` [Example 1063] are > 0.2 µM and > 0.5 µM.
Taken in the same sequence, the figures for `COc1cc(C(=O)NC[C@](O)(c2cc3c(c(-c4ccc(F)cc4)n2)OC[C@]3(CF)C(N)=O)C2CC2)cc2cn(C3CC3)nc12` [Example 1064] were < 0.2 µM and < 0.5 µM.
`COc1cc(C(=O)NC[C@](O)(c2cc3c(c(-c4ccc(F)cc4)n2)OC[C@@]3(C(N)=O)C2CC2)C(F)(F)F)cc2cc(C3CC3)nn12` [Example 1065]: the concentration for a half-maximal effect (EC50) in experiment [1] was < 0.2 µM; in experiment [2] it was < 0.5 µM.
`COc1cc(C(=O)NC[C@](O)(c2cc3c(c(-c4ccc(F)cc4)n2)OC[C@]3(C(N)=O)C2CC2)C(F)(F)F)cc2cc(C3CC3)nn12` [Example 1066]: the EC50 is > 0.2 µM in experiment [1] and > 0.5 µM in experiment [2].
The corresponding values for `C[C@]1(C(N)=O)COc2c1cc([C@@](O)(CNC(=O)c1cc3c(cn1)OC(F)(F)O3)C(F)(F)F)nc2-c1ccc(F)cc1` [Example 1067] are < 0.2 µM and > 0.5 µM.
The corresponding values for `COc1cc(C(=O)NC[C@](O)(c2cc3c(c(-c4ccc(F)cc4)n2)OC[C@]3(C)C(N)=O)C(F)(F)F)cc2cn(C(F)(F)F)nc12` [Example 1068] are < 0.2 µM and < 0.5 µM.
Regarding `COc1cc(C(=O)NC[C@](O)(c2cc3c(c(-c4ccc(F)cc4)n2)OC[C@]3(C)C(N)=O)C(F)(F)F)cc2cc(C(F)F)nnc12` [Example 1069], the EC50 was < 0.2 µM in experiment [1] and > 0.5 µM in experiment [2].
The corresponding values for `COc1cc(C(=O)NC[C@](O)(c2cc3c(c(-c4ccc(F)c(Cl)c4F)n2)OC[C@]3(C)C(N)=O)C2CC2)cc2cc(C)c(Cl)nc12` [Example 1072] are < 0.2 µM and < 0.5 µM.
Consider `COc1cc(C(=O)NC[C@](O)(c2cc3c(c(-c4ccc5c(c4)OC(F)(F)O5)n2)OC[C@]3(C)C(N)=O)C2CC2)cc2cc(C)c(Cl)nc12` [Example 1074], for which the 50% effective concentration (EC50) in experiment [1] is < 0.2 µM; in experiment [2], < 0.5 µM.
The corresponding values for `COc1cc(C(=O)NC[C@](O)(c2cc3c(c(-c4ccc(F)c(C#N)c4F)n2)OC[C@]3(C)C(N)=O)C(F)(F)F)cc2cn(C3CC3)nc12` [Example 1080] are < 0.2 µM and < 0.5 µM.
Taken in the same sequence, the figures for `COc1cc(C(=O)NC[C@](O)(c2nc(-c3cc(Cl)c(F)cc3F)c3c(c2Cl)[C@@](C)(C(N)=O)CO3)C2CC2)cc2cn(C3CC3)nc12` [Example 1081] were < 0.2 µM and < 0.5 µM.
Taken in the same sequence, the figures for `Cc1cnc2c(Cl)cc(C(=O)NC[C@](O)(c3cc4c(c(-c5ccc(F)c(Br)c5F)n3)OC[C@]4(C)C(N)=O)C3CC3)cc2c1` [Example 1084] were < 0.2 µM and < 0.5 µM.
As for `COc1cc(C(=O)NC[C@](O)(c2cc3c(c(-c4cccc(Br)c4F)n2)OC[C@]3(C)C(N)=O)C2CC2)cc2cn(C3CC3)nc12` [Example 1085], the EC50 in experiment [1] was < 0.2 µM; in experiment [2] it was < 0.5 µM.
The corresponding values for `COc1cc(C(=O)NC[C@](O)(c2cc3c(c(-c4cccc(Br)c4F)n2)OC[C@]3(C)C(N)=O)C2CC2)cc2cn(C3(F)CC3)nc12` [Example 1087] are < 0.2 µM and < 0.5 µM.
Take `COc1cc(C(=O)NC[C@](O)(c2cc3c(c(-c4cc(Br)c(F)cc4F)n2)OC[C@]3(C)C(N)=O)C2CC2)cc2cn(C3CC3)nc12` [Example 1088]: the EC50 in experiment [1] was < 0.2 µM; in experiment [2], < 0.5 µM.
With `COc1cc(C(=O)NC[C@](O)(c2cc3c(c(-c4cc(Br)c(F)cc4F)n2)OC[C@]3(C)C(N)=O)C2CC2)cc2cn(C3(F)CC3)nc12` [Example 1089], the EC50 in experiment [1] was < 0.2 µM; in experiment [2], < 0.5 µM.
Taken in the same sequence, the figures for `COc1cc(C(=O)NC[C@](O)(c2cc3c(c(-c4ccc(F)cc4)n2)OC[C@]3(C)C(N)=O)C(F)(F)F)cc2cc(Br)c(Cl)nc12` [Example 1090] were < 0.2 µM and > 0.5 µM.
Turning to `Cc1cnc2c(Cl)cc(C(=O)NC[C@](O)(c3cc4c(c(-c5cccc(Br)c5F)n3)OC[C@]4(C)C(N)=O)C3CC3)cc2c1` [Example 1091], the EC50 in experiment [1] was < 0.2 µM; in experiment [2] it was < 0.5 µM.
